In brackets after ≈: the same amount, converted by molar mass. Several values for one entry are separate records, joined by “and”; a condition that tells them apart may be missing. Equal entries are not always repeated. Entries after “also recorded” stand apart in the source; their conditions may differ. Where two headings read alike, the source gives them in different places.
Experiments:
[1] = Clinical pharmacokinetics of ivermectin metabolites in blood of healthy volunteers; type: in vivo, human; details: for Cmax [ratio]: area/internal standard area ratio; for Cmax [ratio] / Half-life / MRTlast / Tmax: whole blood, 12 subjects, mean ± SE; for Cmax [ratio] / Half-life / MRTlast: 12 mg ivermectin, NCA; for Tmax: single oral 12 mg ivermectin
Procedure: Peripheral venous blood samples were collected before dosing and after 1, 2, 4, 6, 8, 12, 24, 48 and 72 h. Blood samples (50 µL) were extracted by the addition of 150 µL ISTD solution. Samples were mixed for 1 min and centrifuged for 30 min at 3220×g and 15 °C (5810 R centrifuge). Twenty microlitres of supernatant were injected into the LC–MS/MS system to determine the signal intensity of the metabolites.
The different LC–MS/MS settings were applied for the metabolism, pharmacokinetic and metabolite fractioning assays (Additional file 1: Table S1, S2, S3). All analyses were performed on a modular HPLC (Shimadzu, Kyoto, Japan) composed of four pumps (2 × LC-30AD, 2 × LC-20AD), an autosampler (SIL 30-AC MP), a system controller (CBM-20A), two degassing units (DGU-20A5 and DGU-20A3R), a column oven (CTO-20AC), a low-pressure valve (FCV-12AH), and a fraction collector (FRC-12A). The HPLC system was connected to an API 5000 triple quadrupole mass spectrometer (AB Sciex, Ontario, Canada) that was equipped with a turbo electrospray ionization source. The system was operated with Analyst Software 1.7 (AB Sciex) and acquired data were analysed using MultiQuant Software 3.0.3 (AB Sciex).
The integral method “linear up log down” was used on area/internal standard area ratio.
In total, three T0 blank blood samples originating from different PK study participants were used to resuspend the metabolites (Additional file 1: Table S5). The signal intensity was recorded for every metabolite by extracting the 50 µL blood with 150 µL of ISTD solution. The metabolite peak area was determined by LC–MS/MS (see section LC-MS/MS analysis of ivermectin). Moreover, the PK samples of all study participants were equally extracted and analysed to derive the maximal blood level (Cmax) from the blood level-time curves. Afterwards, the mean metabolite peak area of the spiked blank blood was compared with the mean peak area of the Cmax samples (Additional file 1: Table S5). The amount of each metabolite fraction was either reduced or increased to match the peak area of Cmax samples. If the metabolite was not detectable in PK samples, the amount of metabolite was adjusted to the lower limit of detection of the method. In this case, blank blood was spiked with the metabolite fraction to receive a signal intensity that is three times larger than the corresponding noise level.

[2] = system: Anopheles stephensi mosquitoes; assay: 3-day LC50 in Anopheles stephensi (membrane feeding, dilutions); type: in vivo; details: 72 h after blood feeding
Procedure: A pilot test was performed to evaluate optimal dilutions matching the expected LC50 values (data not shown).
Student's t test was adopted to test the significance of all mean survival differences between groups, using the R package ggsignif (version 0.6.4). Survival analyses, summary and visualisation of survival analysis were computed using the GNU R packages survival (version 3.1-8) and survminer (version 0.4.9). Replicates were pooled and analysed by the logrank test and the hazard ratio with 95% confidence intervals. LC50 in An. stephensi mosquito were approximated with regression analysis, using GNU R package drc (version 3.0-1) for analysis of dose–response curves (Additional file 1: Fig. S3). The time above LC50 estimation (Additional file 1: Fig. S4) was computed using the GNU R package data.table (version 1.14.6).

[3] = system: Anopheles stephensi mosquitoes; assay: Anopheles stephensi membrane feeding screening assay (survival and activity); type: in vivo; details: for Average activity score: score +2 flying, +1 moving, 0 dead; for activity against An. stephensi: at Cmax levels observed in clinical PK samples; for mean survival of mosquitoes after blood meal: blood meal at Cmax level; for mosquitoes dead after 72 h: blood meal at Cmax level (ivermectin 50 ng/mL), 72 h after treatment
Procedure: The final DMSO content in blood was 0.1%, which was also the DMSO concentration used for the negative control assays (0.1% DMSO in blank blood). Inclusion of blank fractions as additional negative controls were not considered, because it would not have been feasible to also test the corresponding blank fraction for each metabolite fraction (F1–F9). The blood preparations were rotated at room temperature for 20 min to ensure a uniform metabolite distribution (Rotator Genie, Scientific Industries, Bohemia, USA). The dissolution of the metabolites was confirmed by LC–MS/MS.
Around 50–70 female mosquitoes aged 5–10 days post-emergence were transferred with a mouth aspirator into 20 mL paper cups. A piece of mosquito netting was used to cover the cups. Mosquitoes were starved for 24 h before treatment. The mosquito blood meals were heated in a water bath (SAHARA PPO S5P Heated Bath Circulators, Thermo Fisher Scientific, New Hampshire, USA) for 20 min at 39 °C. A Petri dish (35 mm × 10 mm, BD, Franklin Lakes, USA) was filled with 3 mL of warm blood, sealed with a piece of sealing film (Parafilm®, Huberlab AG, Aesch, Switzerland). The Petri dish was placed upside down on top of the net sealing the paper cup. Female mosquitoes were allowed to feed for 20 min on the blood through the net and the sealing film. The feeding was conducted in a climate chamber (HPP110, Memmert GmbH + Co.KG, Schwabach, Germany) at 27 °C, 70% humidity, and 30% light intensity. After feeding, the cups were put on ice to immobilise the mosquitoes and only the fully engorged mosquitoes were selected for the assay. The mosquitoes were returned to the climate chamber to assess their activity and survival for 3 days.
In the framework of screening assays, mosquitoes were treated with blood containing each metabolite corresponding to Cmax levels observed in PK samples. […] In screening assays, eleven treatments were evaluated with three replicates using three batches of 50–70 mosquitoes.

rh CYP3A4 supersomes = molecular target: T1, rh CYP3A4 supersomes (Homo sapiens, UniProt P08684); assay: Ivermectin metabolism by recombinant human CYP3A4 supersomes; type: in vitro ADME; details: 10 µM ivermectin
T1 construct: purchased Corning Life Sciences B.V. (Amsterdam, The Netherlands)
T1 sequence (P08684 whole entry): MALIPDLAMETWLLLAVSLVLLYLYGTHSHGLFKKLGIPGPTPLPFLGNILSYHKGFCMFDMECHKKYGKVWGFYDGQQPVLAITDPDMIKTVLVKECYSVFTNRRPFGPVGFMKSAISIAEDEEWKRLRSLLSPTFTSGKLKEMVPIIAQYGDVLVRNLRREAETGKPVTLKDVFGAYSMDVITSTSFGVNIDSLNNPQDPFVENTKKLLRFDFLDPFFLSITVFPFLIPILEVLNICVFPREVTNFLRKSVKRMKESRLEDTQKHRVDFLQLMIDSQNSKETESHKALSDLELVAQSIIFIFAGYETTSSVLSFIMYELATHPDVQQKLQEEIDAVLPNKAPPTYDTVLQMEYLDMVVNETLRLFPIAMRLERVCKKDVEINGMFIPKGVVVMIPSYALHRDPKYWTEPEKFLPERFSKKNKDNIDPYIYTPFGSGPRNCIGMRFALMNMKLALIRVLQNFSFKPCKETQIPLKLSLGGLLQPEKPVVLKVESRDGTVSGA
Procedure: (§1) The assay mixture was heated for 10 min at 37 °C in a Thermomixer 5436 (Eppendorf, Hamburg, Germany) and the reaction was initiated by the addition of supersomes. Samples (50 μL) were taken after 0, 15, 30, 45, and 60 min. […] After centrifugation (30 min at 3220×g and 15 °C, 5810 R Eppendorf centrifuge), sample supernatants (10 µL) were analysed by LC–MS/MS. Metabolite production was quantified by dividing the metabolite peak area with the ISTD peak area. Each metabolism assay was performed in triplicate.

rh CYP3A5 supersomes = molecular target: T2, rh CYP3A5 supersomes (Homo sapiens, UniProt P20815); assay: Ivermectin metabolism by recombinant human CYP3A5 supersomes; type: in vitro ADME; details: 10 µM ivermectin
T2 construct: purchased Corning Life Sciences B.V. (Amsterdam, The Netherlands)
T2 sequence (P20815 whole entry): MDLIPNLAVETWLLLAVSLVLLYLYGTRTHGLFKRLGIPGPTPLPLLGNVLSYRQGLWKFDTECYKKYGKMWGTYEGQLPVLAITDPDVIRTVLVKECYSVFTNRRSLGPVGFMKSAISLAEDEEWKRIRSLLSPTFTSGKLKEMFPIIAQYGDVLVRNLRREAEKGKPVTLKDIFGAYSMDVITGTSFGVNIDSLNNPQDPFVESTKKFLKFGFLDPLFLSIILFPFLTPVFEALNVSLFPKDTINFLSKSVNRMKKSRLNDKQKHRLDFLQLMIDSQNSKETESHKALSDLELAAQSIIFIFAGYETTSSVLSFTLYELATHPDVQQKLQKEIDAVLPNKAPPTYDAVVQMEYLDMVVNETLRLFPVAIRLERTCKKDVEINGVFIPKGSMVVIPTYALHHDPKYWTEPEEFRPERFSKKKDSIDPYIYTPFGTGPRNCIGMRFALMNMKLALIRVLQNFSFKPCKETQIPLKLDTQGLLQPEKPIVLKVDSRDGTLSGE
Procedure: as §1

[4] = cited from earlier work
[5] = plasma, single oral 12 mg ivermectin, mean ± SD; cited from earlier work
Aedes aegypti = details: cited from earlier work
An. stephensi = details: cited from earlier work
An. gambiae = details: cited from earlier work
[6] = mean of PK subjects 1-12, 50 µL blood
[7] = Cmax = maximal peak area in human PK samples

## CCC(C)C1OC2(CCC1C)CC1CC(CC=C(C)C(OC3CC(OC)C(OC4CC(OC)C(O)C(C)O4)C(C)O3)C(C)C=CC=C3COC4C(O)C(CO)=CC(C(=O)O1)C34O)O2 (stereo not shown) [M2, 4-hydroxy-H2B1a]
[1]; PK subject 1, 50 µL blood
  Observed Cmax, peak area: 1.84E+04 counts
[1]; PK subject 2, 50 µL blood
  Observed Cmax, peak area: 9.36E+03 counts
[1]; PK subject 3, 50 µL blood
  Observed Cmax, peak area: 1.31E+04 counts
[1]; PK subject 4, 50 µL blood
  Observed Cmax, peak area: 7.42E+03 counts
[1]; PK subject 5, 50 µL blood
  Observed Cmax, peak area: 9.63E+03 counts
[1]; PK subject 6, 50 µL blood
  Observed Cmax, peak area: 2.00E+04 counts
[1]; PK subject 7, 50 µL blood
  Observed Cmax, peak area: 1.39E+04 counts
[1]; PK subject 8, 50 µL blood
  Observed Cmax, peak area: 1.25E+04 counts
[1]; PK subject 9, 50 µL blood
  Observed Cmax, peak area: 1.08E+04 counts
[1]; PK subject 10, 50 µL blood
  Observed Cmax, peak area: 1.50E+04 counts
[1]; PK subject 11, 50 µL blood
  Observed Cmax, peak area: 1.64E+04 counts
[1]; PK subject 12, 50 µL blood
  Observed Cmax, peak area: 1.59E+04 counts
[1]
  Cmax [ratio]: 0.010 ± 0.0010 ratio
  Half-life: 31.9 ± 3.4 h
  MRTlast: 25.8 ± 0.7 h
  Tmax: 6.3 ± 0.3 h
[1]; [6]
  Observed Cmax, peak area: 1.35E+04 counts
[2]; [7]
  3-day LC50: 0.21 Cmax
[3]; 0 h post feeding
  Average activity score: 2.00
[3]; 24 h post feeding
  Average activity score: 1.20 and 1.20 ± 0.12
[3]; 48 h post feeding
  Average activity score: 0.28 and 0.28 ± 0.05
[3]; 72 h post feeding
  Average activity score: 0
[3]
  activity against An. stephensi: active
  mean survival of mosquitoes after blood meal: decreased
  mosquitoes dead after 72 h: 100%

## CCC(C)C1OC2(CCC1C)CC1CC(CC=C(C)C(OC3CC(OC)C(OC4CC(O)C(O)C(C)O4)C(C)O3)C(C)C=CC=C3COC4C(O)C(C)=CC(C(=O)O1)C34O)O2 (stereo not shown) [M1, 3″-O-desmethyl-H2B1a]
[1]; PK subject 1, 50 µL blood
  Observed Cmax, peak area: 1.95E+04 counts
[1]; PK subject 2, 50 µL blood
  Observed Cmax, peak area: 1.01E+04 counts
[1]; PK subject 3, 50 µL blood
  Observed Cmax, peak area: 1.39E+04 counts
[1]; PK subject 4, 50 µL blood
  Observed Cmax, peak area: 8.48E+03 counts
[1]; PK subject 5, 50 µL blood
  Observed Cmax, peak area: 9.52E+03 counts
[1]; PK subject 6, 50 µL blood
  Observed Cmax, peak area: 2.33E+04 counts
[1]; PK subject 7, 50 µL blood
  Observed Cmax, peak area: 1.56E+04 counts
[1]; PK subject 8, 50 µL blood
  Observed Cmax, peak area: 1.79E+04 counts
[1]; PK subject 9, 50 µL blood
  Observed Cmax, peak area: 1.28E+04 counts
[1]; PK subject 10, 50 µL blood
  Observed Cmax, peak area: 1.60E+04 counts
[1]; PK subject 11, 50 µL blood
  Observed Cmax, peak area: 2.28E+04 counts
[1]; PK subject 12, 50 µL blood
  Observed Cmax, peak area: 1.78E+04 counts
[1]
  Cmax [ratio]: 0.011 ± 0.001 ratio
  Half-life: 54.2 ± 4.7 h
  MRTlast: 33.8 ± 0.9 h
  Tmax: 7.0 ± 0.5 h
[1]; [6]
  Observed Cmax, peak area: 1.56E+04 counts
[2]; [7]
  3-day LC50: 0.25 Cmax
[3]; 0 h post feeding
  Average activity score: 2.00
[3]; 24 h post feeding
  Average activity score: 1.07 and 1.07 ± 0.04
[3]; 48 h post feeding
  Average activity score: 0.23 and 0.23 ± 0.02
[3]; 72 h post feeding
  Average activity score: 0.01
[3]
  activity against An. stephensi: active
  mean survival of mosquitoes after blood meal: decreased
  mosquitoes dead after 72 h: 98.8%

## CCC(C)C1OC2(CCC1C)CC1CC(CC=C(C)C(OC3CC(OC)C(OC4CC(OC)C(O)C(C)O4)C(C)O3)C(C)C=CC=C3COC4C(O)C(C)=CC(C(=O)O1)C34O)O2 (stereo not shown) [Ivermectin, 22,23-dihydroavermectin B1a, reference compound]
Rh CYP3A4 supersomes; within 1 h
  ivermectin metabolised: 80%
Rh CYP3A5 supersomes; within 1 h
  ivermectin metabolised: 20%
[4]
  estimated half-life: 24 to 72 h
[4]; single oral dose of 150 µg/kg
  peak concentration: around 40 ng/mL
  time of peak concentration: Approximately 4 h
[5]
  Cmax: 70.7 ± 16.1 ng/mL
  Half-life: 38.9 ± 20.8 h
  Tmax: 4.4 ± 1.4 h
[2]
  3-day LC50: 3.07 ng/mL
[2]; Anopheles stephensi, 72 h
  LC50: ~3 ng/mL (≈ 3.43 nM)
Aedes aegypti
  LC50 within 7-days: 178 to 187 ng/mL
An. stephensi
  4-day-LC50: 7 ng/mL
An. gambiae; blood fed from treated humans
  7-day-LC50: 3.4 ng/mL
An. gambiae; spiked ivermectin experiments (in vitro mixture)
  7-day-LC50: 15.9 ng/mL
[3]; 0 h post feeding
  Average activity score: 2.00
[3]; 24 h post feeding
  Average activity score: 0.71 ± 0.05
[3]; 24 h post feeding, listed as IVM
  Average activity score: 0.71
[3]; 48 h post feeding
  Average activity score: 0.03 ± 0.02
[3]; 48 h post feeding, listed as IVM
  Average activity score: 0.03
[3]; 72 h post feeding
  Average activity score: 0
[3]
  mean survival of mosquitoes after blood meal: decreased
  mosquitoes dead after 72 h: 100%

## CC[C@H](C)[C@H]1O[C@]2(CC[C@@H]1CO)C[C@@H]1C[C@@H](C/C=C(\C)[C@@H](O[C@H]3C[C@H](OC)[C@@H](O[C@H]4C[C@H](OC)[C@@H](O)[C@H](C)O4)[C@H](C)O3)[C@@H](C)/C=C/C=C3\CO[C@@H]4[C@H](O)C(C)=C[C@@H](C(=O)O1)[C@]34O)O2 [M9, 24-hydroxy-H2B1a]
[1]; human blood after single oral 12 mg ivermectin
  detection in pharmacokinetic samples: Only traces
Rh CYP3A4 supersomes
  metabolite formation by CYP3A4: only minor amounts
Rh CYP3A5 supersomes
  metabolite formation by CYP3A5: mainly produced by CYP3A5; also recorded: very effective
[3]; 0 h post feeding
  Average activity score: 2.00
[3]; 24 h post feeding
  Average activity score: 1.92
[3]; 48 h post feeding
  Average activity score: 1.87
[3]; 72 h post feeding
  Average activity score: 1.64

Reference: publication PMC10290335 (Malaria Journal, 2023)
